# Publication PMC12362796, “Bilirubin Targeting WNK1 to Alleviate NLRP3‐Mediated Neuroinflammation” (Advanced Science, 2025)
# Assays:
# full-length hWNK1 = biological target: T1, full-length hWNK1 (Homo sapiens, UniProt Q9H4A3); experiment: MicroScale Thermophoresis (MST), EGFP-tagged full-length WNK1 in HEK293T cell lysates; assay type: binding; conditions: 15 min incubation, lysates of EGFP-WNK1 expressing HEK293T cells, control ligand
# T1 construct: We overexpressed full‐length WNK1 fused with Green Fluorescent Protein (GFP); expressed in transfected cells; host or cells: HEK293T
# Experimental: To validate the direct binding of bilirubin to WNK1, we performed a Microscale Thermophoresis (MST) analysis, which assesses the binding capacity of a compound by measuring the movement of proteins over a microscopic temperature gradient.^[ [26], [27] ^] We overexpressed full‐length WNK1 fused with Green Fluorescent Protein (GFP) in HEK‐293 cells, incubated the lysates with bilirubin at varying dilutions, and subjected them to precise MST measurements in capillaries. […] Furthermore, biliverdin, a structurally similar intermediate product generated before bilirubin formation, was used as a control.
# All WNK1 clones were derived from the original untagged hWNK1 cDNA (NM_018979), which was modified and subcloned into the pcDNA3.1, referred to as “full‐length WNK1” throughout this study. Truncated constructs, including 1–190aa, 191–491aa, 1–491aa, and 491–2382aa fragments, were generated by PCR using the full‐length template and subsequently ligated into linearized pcDNA3.1 vectors. WNK2 was obtained from Addgene Plasmid #24569, and WNK3 was obtained from Addgene Plasmid #81723. Both were subjected to base modifications and cloned into pcDNA3.1. The WNK4 clone was derived from hWNK4 cDNA (NM_032387.5), modified, and subcloned into the pCMV3‐C‐GFPSpark vector.
# In HEK293T cells, proteins tagged with green fluorescent protein (GFP) were expressed. […]
# TRPM2 channels = tested on: TRPM2 channels; design: method as in PMID 36921602; conditions: structural derivative of bilirubin; previous research; cited from earlier work
# [1] = tested on: primary cultured hippocampal neurons; experiment: MQAE intracellular chloride measurement in primary cultured hippocampal neurons; assay type: cell-based, mouse; conditions: co-treatment with bilirubin, DIV8 primary hippocampal neurons, MQAE
# Source text: Therefore, we hypothesized that bilirubin activation of WNK1 kinase activity might affect intracellular chloride levels. […] This was detected using the sensitive molecular probe N‐(Ethoxycarbonylmethyl)‐6‐Methoxyquinolinium Bromide (MQAE), as indicated by a reduction in MQAE fluorescence intensity (Figure 4C,E).^[ [32] ^]
# To ascertain whether bilirubin regulates chloride ions through WNK1, we generated Wnk1 gene knockout primary cultured neurons. We achieved neuron‐specific deletion of Wnk1 in hippocampal neurons by transducing primary neurons isolated from Wnk1^flox/flox embryonic mice with a lentivirus expressing hSyn‐Cre‐EGFP.^[ [33], [34] ^] […] Intracellular chloride concentration is crucial for modulating inhibitory synaptic transmission and, consequently, neuronal excitability.
# Since bilirubin‐induced activation of WNK1 kinase activity increases [Cl⁻]i in neurons, we sought to elucidate the downstream effector proteins of WNK1 that are involved in this process. Neuronal [Cl⁻]i is primarily regulated by the Cl⁻‐K⁺ symporter KCC2, with additional modulation by factors such as the Na⁺‐K⁺‐Cl⁻ co‐transporter NKCC1, GABAA receptors, and glycine receptors (GlyR), all of which contribute to [Cl⁻]i homeostasis.^[ [31] ^] To investigate the mechanism underlying bilirubin‐induced changes in [Cl⁻]i, we selectively targeted these proteins using pharmacological inhibitors (VU0463271 for KCC2, bumetanide for NKCC1, bicuculline for GABAA receptors, and strychnine for GlyR) and activated KCC2 using CLP257.^[ [35], [36] ^] […] The bilirubin‐induced effect on [Cl⁻]i was not observed in primary astrocytes (Figure S15A,B, Supporting Information) or the HEK 293T cell line (Figure S15C, Supporting Information), both of which lacked KCC2 expression (Figure S16A,B, Supporting Information), further confirming that the effects of bilirubin and WNK1 on [Cl⁻]i elevation are dependent on KCC2.
# Intracellular chloride concentration ([Cl⁻]i) was measured using the MQAE fluorescent dye (Life Technologies) following established protocols (Zhang, Lee et al. 2015). […]
# T1 sequence (Q9H4A3 whole entry, the tested form may be a part): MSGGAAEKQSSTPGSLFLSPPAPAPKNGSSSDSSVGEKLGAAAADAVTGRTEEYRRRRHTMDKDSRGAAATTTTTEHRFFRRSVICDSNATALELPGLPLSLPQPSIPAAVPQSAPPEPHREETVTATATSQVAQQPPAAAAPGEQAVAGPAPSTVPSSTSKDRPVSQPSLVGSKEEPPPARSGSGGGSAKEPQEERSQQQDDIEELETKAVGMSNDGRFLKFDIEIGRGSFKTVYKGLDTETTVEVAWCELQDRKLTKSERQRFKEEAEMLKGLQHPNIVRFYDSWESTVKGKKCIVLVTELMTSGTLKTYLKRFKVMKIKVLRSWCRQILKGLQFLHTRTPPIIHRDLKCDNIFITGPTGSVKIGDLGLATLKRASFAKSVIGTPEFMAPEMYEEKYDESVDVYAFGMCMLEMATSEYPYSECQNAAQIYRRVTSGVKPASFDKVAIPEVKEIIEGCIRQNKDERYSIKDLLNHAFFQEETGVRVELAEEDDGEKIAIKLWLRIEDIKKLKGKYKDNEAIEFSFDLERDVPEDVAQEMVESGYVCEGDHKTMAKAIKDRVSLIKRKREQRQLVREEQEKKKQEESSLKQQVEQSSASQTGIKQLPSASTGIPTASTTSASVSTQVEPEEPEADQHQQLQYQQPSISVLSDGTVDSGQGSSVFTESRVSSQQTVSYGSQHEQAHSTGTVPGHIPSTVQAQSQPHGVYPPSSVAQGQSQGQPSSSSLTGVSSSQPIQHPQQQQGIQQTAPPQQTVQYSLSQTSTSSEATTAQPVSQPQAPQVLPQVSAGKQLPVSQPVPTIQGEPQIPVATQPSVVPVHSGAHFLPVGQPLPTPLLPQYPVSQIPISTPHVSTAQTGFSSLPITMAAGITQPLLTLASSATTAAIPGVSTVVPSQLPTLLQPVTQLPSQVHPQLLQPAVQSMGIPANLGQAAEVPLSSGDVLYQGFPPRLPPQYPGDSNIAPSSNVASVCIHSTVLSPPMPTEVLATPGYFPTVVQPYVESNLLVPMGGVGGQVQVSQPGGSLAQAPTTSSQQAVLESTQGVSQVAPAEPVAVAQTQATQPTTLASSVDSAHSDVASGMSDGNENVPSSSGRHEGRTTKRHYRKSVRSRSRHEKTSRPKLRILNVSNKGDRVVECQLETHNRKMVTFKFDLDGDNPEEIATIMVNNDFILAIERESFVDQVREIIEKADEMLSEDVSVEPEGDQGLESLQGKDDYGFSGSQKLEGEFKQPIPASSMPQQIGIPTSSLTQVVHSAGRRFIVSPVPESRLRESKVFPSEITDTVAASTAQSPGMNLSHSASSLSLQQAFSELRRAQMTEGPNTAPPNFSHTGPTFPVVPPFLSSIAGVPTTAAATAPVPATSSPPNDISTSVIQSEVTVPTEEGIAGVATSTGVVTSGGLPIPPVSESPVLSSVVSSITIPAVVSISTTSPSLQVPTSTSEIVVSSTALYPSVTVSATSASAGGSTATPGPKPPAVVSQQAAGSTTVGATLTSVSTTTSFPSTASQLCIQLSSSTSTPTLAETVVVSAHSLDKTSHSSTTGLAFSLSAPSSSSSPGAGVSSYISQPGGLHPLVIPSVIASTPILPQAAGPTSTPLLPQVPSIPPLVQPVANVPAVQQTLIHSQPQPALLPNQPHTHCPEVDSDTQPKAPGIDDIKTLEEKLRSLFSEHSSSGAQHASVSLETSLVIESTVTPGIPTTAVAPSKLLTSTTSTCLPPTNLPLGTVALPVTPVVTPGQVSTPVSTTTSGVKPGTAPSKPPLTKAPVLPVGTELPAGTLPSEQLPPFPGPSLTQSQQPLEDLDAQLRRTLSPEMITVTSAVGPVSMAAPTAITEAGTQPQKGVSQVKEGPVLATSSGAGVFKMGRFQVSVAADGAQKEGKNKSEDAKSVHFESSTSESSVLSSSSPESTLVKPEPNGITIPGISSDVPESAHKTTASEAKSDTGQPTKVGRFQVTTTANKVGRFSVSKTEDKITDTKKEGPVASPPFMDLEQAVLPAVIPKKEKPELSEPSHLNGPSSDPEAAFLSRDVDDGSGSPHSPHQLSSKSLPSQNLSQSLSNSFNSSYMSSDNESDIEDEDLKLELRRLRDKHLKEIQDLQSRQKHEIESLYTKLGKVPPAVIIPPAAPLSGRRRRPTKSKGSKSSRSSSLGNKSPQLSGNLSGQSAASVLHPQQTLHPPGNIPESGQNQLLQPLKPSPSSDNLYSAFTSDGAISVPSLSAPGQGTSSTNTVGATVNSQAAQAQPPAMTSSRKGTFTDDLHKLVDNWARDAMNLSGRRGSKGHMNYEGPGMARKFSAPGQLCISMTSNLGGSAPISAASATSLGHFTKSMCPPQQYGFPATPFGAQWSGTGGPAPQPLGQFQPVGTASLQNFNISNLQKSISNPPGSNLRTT
Kd (full-length hWNK1),SMILES,activation of TRPM2 channels (TRPM2 channels),effect on bilirubin-induced elevation of [Cl−]i [1]
29.7 µM,"C=CC1=C(C)/C(=C/C2=NC(=C\c3[nH]c(/C=C4\NC(=O)C(C)=C4C=C)c(C)c3CCC(=O)O)/C(CCC(=O)O)=C2C)NC1=O [Biliverdin, reference compound]",can activate,–
–,"O=C1N=C(N2CCCCN2)S/C1=C\c1ccc(F)cc1O [CLP257, reference compound]",–,counteracted the effect of bilirubin
